# Experimental data taken from patent publication US20040087633A1, “Methylidene oxazolidinone compound and preparation method thereof” (Korea Institute of Science and Technology, priority 2002, published 2004).
# Experiments:
# Assay in all cases: Anti-microbial activity test in vitro (agar dilution MIC)
# CRSA C1062 = assay type: cell-based, Staphylococcus aureus; conditions: CRSA C1062; Agar Dilution method, Mueller Hinton Agar, 18 hours at 37° C.
# Summary of the method: (§1)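 MIC in μg/ml, scored by eye after 18 h at 37 °C on Mueller Hinton agar plates carrying twofold stepwise compound dilutions.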
# CRSA C6043 = assay type: cell-based, Staphylococcus aureus; conditions: CRSA C6043; Agar Dilution method, Mueller Hinton Agar, 18 hours at 37° C.
# Summary of the method: as §1
# MRSA C2207 = assay type: cell-based, Staphylococcus aureus; conditions: MRSA C2207; Agar Dilution method, Mueller Hinton Agar, 18 hours at 37° C.
# Summary of the method: as §1
# MRSA C5100 = assay type: cell-based, Staphylococcus aureus; conditions: MRSA C5100; Agar Dilution method, Mueller Hinton Agar, 18 hours at 37° C.
# Summary of the method: as §1
# MRSA C6068 = assay type: cell-based, Staphylococcus aureus; conditions: MRSA C6068; Agar Dilution method, Mueller Hinton Agar, 18 hours at 37° C.
# Summary of the method: as §1
# MSSA C2214 = assay type: cell-based, Staphylococcus aureus; conditions: MSSA C2214; Agar Dilution method, Mueller Hinton Agar, 18 hours at 37° C.
# Summary of the method: as §1
# MSSA C7142 = assay type: cell-based, Staphylococcus aureus; conditions: MSSA C7142; Agar Dilution method, Mueller Hinton Agar, 18 hours at 37° C.
# Summary of the method: as §1
# E. faecalis ATCC29212 = assay type: cell-based; conditions: E. faecalis ATCC29212; Agar Dilution method, Mueller Hinton Agar, 18 hours at 37° C.
# Summary of the method: as §1
# E. faecalis C6288 = assay type: cell-based; conditions: E. faecalis C6288; Agar Dilution method, Mueller Hinton Agar, 18 hours at 37° C.
# Summary of the method: as §1
# E. faecalis C6291 = assay type: cell-based; conditions: E. faecalis C6291; Agar Dilution method, Mueller Hinton Agar, 18 hours at 37° C.
# Summary of the method: as §1
# E. faecium C2252 = assay type: cell-based; conditions: E. faecium C2252; Agar Dilution method, Mueller Hinton Agar, 18 hours at 37° C.
# Summary of the method: as §1
# E. faecium C6301 = assay type: cell-based; conditions: E. faecium C6301; Agar Dilution method, Mueller Hinton Agar, 18 hours at 37° C.
# Summary of the method: as §1
# S. aureus ATCC 29213 = assay type: cell-based; conditions: Agar Dilution method, Mueller Hinton Agar, 18 hours at 37° C.
# Summary of the method: as §1
# S. epidermidis ATCC12228 = assay type: cell-based; conditions: S. epidermidis ATCC12228; Agar Dilution method, Mueller Hinton Agar, 18 hours at 37° C.
# Summary of the method: as §1
# S. epidermidis C2230 = assay type: cell-based; conditions: S. epidermidis C2230; Agar Dilution method, Mueller Hinton Agar, 18 hours at 37° C.
# Summary of the method: as §1
# S. epidermidis C2235 = assay type: cell-based; conditions: S. epidermidis C2235; Agar Dilution method, Mueller Hinton Agar, 18 hours at 37° C.
# Summary of the method: as §1
# S. pyogenes ATCC8668 = assay type: cell-based; conditions: S. pyogenes ATCC8668; Agar Dilution method, Mueller Hinton Agar, 18 hours at 37° C.
# Summary of the method: as §1
# S. pyogenes C6003 = assay type: cell-based; conditions: S. pyogenes C6003; Agar Dilution method, Mueller Hinton Agar, 18 hours at 37° C.
# Summary of the method: as §1
# S. pyogenes C6012 = assay type: cell-based; conditions: S. pyogenes C6012; Agar Dilution method, Mueller Hinton Agar, 18 hours at 37° C.
# Summary of the method: as §1
# VRE C6487 = assay type: cell-based, Enterococcus faecium; conditions: VRE C6487; Agar Dilution method, Mueller Hinton Agar, 18 hours at 37° C.
# Summary of the method: as §1
# VRE C6488 = assay type: cell-based, Enterococcus faecium; conditions: VRE C6488; Agar Dilution method, Mueller Hinton Agar, 18 hours at 37° C.
# Summary of the method: as §1
SMILES,Minimum inhibition concentration (MIC) (CRSA C1062),Minimum inhibition concentration (MIC) (CRSA C6043),Minimum inhibition concentration (MIC) (MRSA C2207),Minimum inhibition concentration (MIC) (MRSA C5100),Minimum inhibition concentration (MIC) (MRSA C6068),Minimum inhibition concentration (MIC) (MSSA C2214),Minimum inhibition concentration (MIC) (MSSA C7142),Minimum inhibition concentration (MIC) (E. faecalis ATCC29212),Minimum inhibition concentration (MIC) (E. faecalis C6288),Minimum inhibition concentration (MIC) (E. faecalis C6291),Minimum inhibition concentration (MIC) (E. faecium C2252),Minimum inhibition concentration (MIC) (E. faecium C6301),Minimum inhibition concentration (MIC) (S. aureus ATCC 29213),Minimum inhibition concentration (MIC) (S. epidermidis ATCC12228),Minimum inhibition concentration (MIC) (S. epidermidis C2230),Minimum inhibition concentration (MIC) (S. epidermidis C2235),Minimum inhibition concentration (MIC) (S. pyogenes ATCC8668),Minimum inhibition concentration (MIC) (S. pyogenes C6003),Minimum inhibition concentration (MIC) (S. pyogenes C6012),Minimum inhibition concentration (MIC) (VRE C6487),other results
"CC(=O)NC[C@H]1CN(c2ccc(N3CCC(=CC(C)OC(=O)C(Cl)Cl)CC3)c(F)c2)C(=O)O1 (stereo partly drawn) [Compound 25, N-[[(5S)-3-[3-fluoro-4-(4-(2-(dichloroacetoxy)propylidene)-piperidinyl)-phenyl]-2-oxo-5-oxazolidinyl]methyl]acetamide]",16 µg/mL,16 µg/mL,16 µg/mL,8 µg/mL,8 µg/mL,16 µg/mL,16 µg/mL,8 µg/mL,8 µg/mL,8 µg/mL,8 µg/mL,8 µg/mL,16 µg/mL,2 µg/mL,8 µg/mL,8 µg/mL,2 µg/mL,8 µg/mL,2 µg/mL,4 µg/mL,Minimum inhibition concentration (MIC) (VRE C6488): 4 µg/mL
"CC(=O)NC[C@H]1CN(c2ccc(N3CCC(=CC=O)CC3)c(F)c2)C(=O)O1 [Compound 17, N-[[(5S)-3-[3-fluoro-4-(4-(2-oxoethylidene)piperidinyl)-phenyl]-2-oxo-5-oxazolidinyl]methyl]acetamide]",8 µg/mL,4 µg/mL,4 µg/mL,4 µg/mL,4 µg/mL,8 µg/mL,4 µg/mL,16 µg/mL,4 µg/mL,8 µg/mL,8 µg/mL,4 µg/mL,8 µg/mL,1 µg/mL,2 µg/mL,2 µg/mL,2 µg/mL,8 µg/mL,1 µg/mL,8 µg/mL,Minimum inhibition concentration (MIC) (VRE C6488): 8 µg/mL
"CC(=O)NC[C@H]1CN(c2ccc(N3CCC(=CC(=O)O)CC3)c(F)c2)C(=O)O1 [Compound 14, N-[[(5S)-3-[3-fluoro-4-(4-carboxymethylidenepiperidinyl)-phenyl]-2-oxo-5-oxazolidinyl]methyl]acetamide]",16 µg/mL,8 µg/mL,8 µg/mL,4 µg/mL,4 µg/mL,8 µg/mL,8 µg/mL,8 µg/mL,4 µg/mL,8 µg/mL,8 µg/mL,4 µg/mL,8 µg/mL,1 µg/mL,4 µg/mL,1 µg/mL,4 µg/mL,2 µg/mL,8 µg/mL,1 µg/mL,Minimum inhibition concentration (MIC) (VRE C6488): 8 µg/mL
